This test concerns the target Induced myeloid leukemia cell differentiation protein Mcl-1 (Homo sapiens) (UniProt Q07820). Description: Mcl-1/Bim interaction regulators – biochemical, bead-based flow cytometry, multiplexed, human, dose response (AID 1329). Conditions: Bim peptide-Mcl-1 binding, MCF; for percent span: stronger effect = higher value. (In general: A flow cytometer gives signals particle by particle.)

The source made the active and inactive calls. The rule behind the calls is not given here.

Induced myeloid leukemia cell differentiation protein Mcl-1 (Homo sapiens), sequence (Q07820 whole entry, looked up): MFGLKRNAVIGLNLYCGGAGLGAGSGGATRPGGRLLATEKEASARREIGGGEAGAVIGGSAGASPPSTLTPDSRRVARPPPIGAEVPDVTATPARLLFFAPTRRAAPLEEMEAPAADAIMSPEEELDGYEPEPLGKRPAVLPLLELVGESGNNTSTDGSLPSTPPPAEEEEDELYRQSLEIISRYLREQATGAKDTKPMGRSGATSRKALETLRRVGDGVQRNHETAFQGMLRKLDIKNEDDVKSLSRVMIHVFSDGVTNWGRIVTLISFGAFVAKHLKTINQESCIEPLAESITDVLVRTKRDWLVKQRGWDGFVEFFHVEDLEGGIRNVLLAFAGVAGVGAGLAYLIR

Regarding `Cc1ccc(-c2cc(-c3ccc4c(c3)OCO4)c(C#N)c(N)n2)o1`, the percent span entry is “inactive”.
`CCN(C(=O)COC(=O)c1cc(-c2ccc(C)o2)nc2ccccc12)C1CCS(=O)(=O)C1` (stereo unspecified): the percent span result was “inactive”.
Same read-out and setting: then `O=C(C[n+]1ccc(-c2nnc3n2CCC3)cc1)c1ccc(Cl)c(Cl)c1`, with “inactive”; and `Cc1ccc(C)c(Oc2ncnc(N)c2[N+](=O)[O-])c1`, with “inactive”.
`Cc1cc(C)cc(NS(=O)(=O)c2ccc3c(c2)c(=O)n(C)c(=O)n3C)c1`: the percent span result is “inactive”.
The same measure, in the same setting: then `CCOC(=O)/C(=C\c1ccc(Cl)cc1)c1nc2sc(C)c(C)c2c(=O)[nH]1`, with “inactive”.
For `C/C(=N/NC(=O)c1cc(O)c(O)c(O)c1)c1ccc([N+](=O)[O-])cc1`, the percent span entry was “inactive”.
On the same count and under the same terms, under `Cc1cc(C)c(S(=O)(=O)/N=C2/C=C(SCC(=O)O)C(=O)c3ccccc32)cc1C` stands “inactive”; under `CC1CC2=C(NC(=S)NC2c2cccc(F)c2)/C(=C/c2cccc(F)c2)C1` (stereo unspecified), “inactive”.
Same read-out and setting: then `N#C/C(=C(/O)CN1CCN(c2ccccc2F)CC1)c1nc(-c2ccccc2)cs1`, with “inactive”; and `COc1cc(/C=C2/NC(=O)N(Cc3ccccc3F)C2=O)cc(OC)c1O`, with “inactive”; and `CC(C)(C)C1CCC(=NNC(=O)c2cc3c(s2)CCCC3)CC1` (stereo unspecified), with “inactive”.
On the same count and under the same terms, then `CCCCN(C(=O)CCC(=O)Nc1cc(C)on1)C(C(=O)NC(C)(C)C)c1cccc(OC)c1OC` (stereo unspecified), with “inactive”.
With `O=C(Nc1ccc(N2CCOCC2)cc1)Nc1ccc2nc(-c3ccco3)c(-c3ccco3)nc2c1`, the percent span entry is “inactive”.
Still for that read-out and setting: then `COC(=O)CSc1ncnc2c1sc1nc(-c3ccco3)c3c(c12)CC(C)(C)OC3`, with “inactive”; and `COc1ccc(NC(=O)c2c(F)cccc2F)cc1S(=O)(=O)Nc1ccc(Br)cc1`, with “inactive”.
The same measure, in the same setting: then `Cc1onc(-c2ccccc2)c1C(=O)Nc1nnc(COc2ccc(Cl)cc2)s1`, with “inactive”; and `O=C(Nc1n[nH]c(C(F)(F)F)n1)C1CC1`, with “inactive”; and `CCCCOC(=O)c1nc(Cl)c(Cl)c(N)c1Cl`, with “inactive”.
On the same count and under the same terms, under `Cc1ccc(N=C2NC(=O)/C(=C/C=C/c3ccco3)S2)cc1` stands “inactive”; under `CC(=O)NC1=C(NC2CCS(=O)(=O)C2)C(=O)c2ccccc2C1=O` (stereo unspecified), “inactive”; under `Cc1ccc(/C=C2/NC(=O)N(Cc3ccccc3)C2=O)o1`, “inactive”.
Regarding `O=C(Nc1ccccc1N1CCOCC1)c1cccs1`, the percent span entry is “inactive”.
Same read-out and setting: then `COc1cccc2c(SCC(=O)N/N=C/c3ccc(O)c(O)c3)cc(C)nc12`, with “inactive”; and `CCOC(=O)c1sc(NC(=O)c2ccncc2)c(C#N)c1C`, with “inactive”; and `Cc1ccc2c(C)c(C(=O)Nc3nnc(C)s3)oc2c1`, with “inactive”.
On the same count and under the same terms, under `Nc1ccc(N2CCCCCC2)cc1` stands “inactive”; under `CNC(=O)c1sc(-c2ccccn2)nc1C`, “inactive”.
With `CCn1cc(C=C2C(=O)c3ccccc3C2=O)c2ccccc21`, the percent span entry was “inactive”.
On the same count and under the same terms, under `O=C1C=C(Nc2ccccc2)C(=O)c2ccccc21` stands “inactive”.
For `COc1ccc2nc(C)cc(SCC(=O)N/N=C/c3ccc(O)c(O)c3)c2c1`, the percent span result is “inactive”.
The same measure, in the same setting: then `Nc1ccccc1N=c1ssnc1Cl`, with “inactive”; and `Cc1cc(-c2nn(-c3ccccc3)cc2/C=C2\SC(N)=NC2=O)ccc1OC(C)C`, with “inactive”; and `CC(C)(C)NC(=O)COc1ccc(CNc2ccc3[nH]c(=O)[nH]c3c2)cc1`, with “inactive”.
Still for that read-out and setting: under `COc1c(C)cc(Br)cc1C(=O)Nc1ccc(S(N)(=O)=O)cc1` stands “inactive”; under `COc1ccc(/C=C2\SC(=O)NC2=S)cc1OC`, “inactive”.
Still for that read-out and setting: under `CCOc1cc(/C=C2/N=C(C)C(C(=O)OC)=C2O)ccc1O` stands “inactive”.
For `Cc1cc(N2CCN(C)CC2)nc2ccc(NC(=S)N3CCCCC3)cc12`, the percent span result was “inactive”.
Same read-out and setting: under `COc1ccc(C2=Nc3cccc4cccc(c34)N2)cc1` stands “inactive”; under `N=C1C(c2nc3ccccc3s2)=C(O)CN1Cc1ccccc1`, “inactive”.
On to `O=C(/C=C/c1ccc(-c2ccccc2)o1)c1ccccc1`, for which the percent span entry is “inactive”.
Same read-out and setting: then `Cc1sc2nc(C(C)C)nc(SCC(=O)N3c4ccccc4CC3C)c2c1C` (stereo unspecified), with “inactive”.
Take `COc1cc(/C=N/Nc2nn3cnnc3c3ccccc23)ccc1O`: the EC50 entry is “inactive”.
Regarding `Cc1cc(-c2cc(-c3ccc(Cl)cc3)nc(N)c2C#N)co1`, the percent span result is “inactive”.
The same measure, in the same setting: then `CCOC(=O)c1nn(-c2ccccc2)c(C#N)c1N`, with “inactive”; and `CCOC(=O)C1=C(CP(=O)(c2ccccc2)c2ccccc2)NC(=O)NC1c1ccc(OC)cc1` (stereo unspecified), with “inactive”; and `O=C(C1=NN(c2ccccc2)C2C(=O)N(c3ccccc3)C(=O)C12)c1ccccc1` (stereo unspecified), with “inactive”.
For `CN1N=C(C(=O)N2CCCC(C(=O)c3cccc(C(F)(F)F)c3)C2)CCC1=O` (stereo unspecified), the percent span entry was “inactive”.
Still for that read-out and setting: then `Cc1cc(-c2csc(N)n2)c(C)n1CCC(C)C`, with “inactive”; and `COc1ccccc1NC1=C(NC(C)=O)C(=O)c2ccccc2C1=O`, with “inactive”; and `O=C(C1CCC(Cn2c(=S)[nH]c3ccccc3c2=O)CC1)N1CCN(c2ccccn2)CC1` (stereo unspecified), with “inactive”.
The same measure, in the same setting: then `COc1ccc(S(=O)(=O)NCCSc2ccc(Cl)cc2)cc1OC`, with “inactive”; and `CN(CCO)c1cc(Sc2nc3ccccc3s2)c2nonc2c1[N+](=O)[O-]`, with “inactive”; and `O=C(N/N=C/c1ccc(O)c(O)c1O)/C(=C/c1ccc([N+](=O)[O-])cc1)NC(=O)c1ccccc1`, with “inactive”.
The same measure, in the same setting: under `CCOC(=O)c1c2c3c(cccc3[nH]c1=O)C(=O)c1ccccc1-2` stands “inactive”; under `CCC(=O)OCCNc1cc(Sc2nc3ccccc3s2)c2nonc2c1[N+](=O)[O-]`, “inactive”.
Turning to `Cc1ccc(-c2cc(C(=O)Nc3ccccc3C)c3ccccc3n2)o1`, the percent span result is “inactive”.
On the same count and under the same terms, under `Cc1cc(Cl)ccc1N=c1ssnc1Cl` stands “inactive”; under `COc1ccc(OC)c(NC(=O)CCCN2C(=S)NC(C)(C)CC2C)c1` (stereo unspecified), “inactive”; under `Cc1ccc(S(=O)(=O)N(C)CC(=O)N2CCc3ccccc32)cc1`, “inactive”.
Turning to `COC(=O)/C(=C/c1ccc(F)cc1)NC(C)=O`, the percent span result was “inactive”.
For `Cc1occc1C(=O)NNC(=S)NCc1ccccc1`, the percent span result is “inactive”.
The same measure, in the same setting: then `Cc1cc(-c2csc(N)n2)c(C)n1C`, with “inactive”; and `CN(C)[C@@H]1C(=O)C(C(=O)NCN2CCCC2)=C(O)[C@@]2(O)C(=O)C3=C(O)c4c(O)cccc4[C@@](C)(O)C3CC12` (stereo partly specified), with “inactive”; and `c1cncc(-c2nnc3n2N=C(c2cccs2)CS3)c1`, with “inactive”.
Consider `OCCC1CN(Cc2ccc3ncccc3c2)CCN1Cc1ccccc1` (stereo unspecified), for which the percent span entry was “inactive”.
Still for that read-out and setting: then `CCc1nn2cc(C(=O)c3cc(C)ccc3O)cnc2c1-c1ccc(F)cc1`, with “inactive”.
For `Cc1ccc(C)n1-c1cccc(C(=O)O)c1`, the percent span entry was “inactive”.
Same read-out and setting: then `CCN1CCN(CC(=O)c2c[nH]c3ccc(C)cc23)CC1`, with “inactive”; and `CN(CCCOc1ccccc1Br)Cc1ccccc1`, with “inactive”; and `CNC(=O)CC1C(=O)N(Cc2ccccc2)C(=S)N1NC(=O)c1cccc(F)c1` (stereo unspecified), with “inactive”.
For `O=C1C(Cl)=C(N2CCN(c3ccccc3[N+](=O)[O-])CC2)C(=O)c2ccccc21`, the percent span entry is “inactive”.
Consider `Cc1cccc(C(=O)N2CCC(c3nc(-c4ccc(S(=O)(=O)N5CCOCC5)cc4)no3)CC2)c1`, for which the percent span result was “inactive”.
Turning to `O=C(Cn1c(-c2ccccc2)noc1=O)N1CCC(Cc2ccccc2)CC1`, the percent span entry is “inactive”.
Still for that read-out and setting: under `CC(C)COC(=O)/C(C#N)=C/c1cn(Cc2ccccc2)c2ccccc12` stands “inactive”; under `CC(C)=C1C(=O)NN(c2ccc(C)c(Cl)c2)C1=O`, “inactive”; under `Cc1cc(NC(=O)CCCC(=O)N(CC(=O)NC2CCCCC2)c2ccccc2)no1`, “inactive”.
Still for that read-out and setting: then `CCc1ccc(/C=C/C(=O)c2cc(Br)ccc(=O)c2O)cc1`, with “inactive”; and `Cc1cc(C)c2nc3nc(C)c(C)cc3c(N)c2c1`, with “inactive”; and `CC(/C=C/C(=O)c1ccc(C)cc1)=C\c1ccccc1`, with “inactive”.
Still for that read-out and setting: under `COc1cc2c(cc1OC)C(c1ccccc1F)OC(=O)C2` (stereo unspecified) stands “inactive”; under `Cc1cc(C)n(CC(=O)N/N=C/c2cccc([N+](=O)[O-])c2)n1`, “inactive”.
As for `CCN1CCN(c2cc(C)c3cc(NC(=S)N4CCCCC4)ccc3n2)CC1`, the percent span entry was “inactive”.
Still for that read-out and setting: then `CC(C)Cc1cc(-c2ccco2)c(C#N)c(N)n1`, with “inactive”.
Still for that read-out and setting: under `Cc1cnnn1-c1ccc(C(=O)CCl)cc1` stands “inactive”; under `CC(=O)Nc1ccc2nc(CN3CCN(CC(C)C)C(CCO)C3)ccc2c1` (stereo unspecified), “inactive”; under `COc1ccc2cc(CN(CCc3ccccc3)Cc3nnnn3CC3CCCO3)c(=O)[nH]c2c1` (stereo unspecified), “inactive”.
The same measure, in the same setting: under `CCOC(=O)C1CCCN(c2ncnc3c2cnn3-c2cccc(C)c2)C1` (stereo unspecified) stands “inactive”; under `Cc1ccc(/C=C/C(=O)Nc2ccc([N+](=O)[O-])c(NC(=O)/C=C/c3ccc(C)o3)c2)o1`, “inactive”.
As to `CN(C)c1ccc(C(=O)/C=C/c2ccc(Br)cc2)cc1`, the percent span result is “inactive”.
Same read-out and setting: under `Cc1nnc(Sc2cc(NCCO)c([N+](=O)[O-])c3nonc23)s1` stands “inactive”.

For the origin of these results see PubChem BioAssay AID1329 (NMMLSC, 2008).
